For the series the following is noted: 101.33 kPa, Liquid, Pycnometric method.

A word on the mass density: it is mass per unit of volume.

± gives the expanded uncertainty stated by the source.

In the case of `CN1CCCC1=O.O=C(O)C(F)(F)F` [N-methylpyrrolidone trifluoroacetate], the mass density is, setting by setting: (303.15 K) 1232.3 ± 2.1 kg/m3; (313.15 K) 1226.1 ± 2.1 kg/m3; (323.15 K) 1219.9 ± 2.1 kg/m3.

Take `CC(=O)N(C)C.O=C(O)C(F)(F)F` [N,N-dimethylacetamide trifluoroacetate]: the mass density runs as follows: (303.15 K) 1227.9 ± 2.1 kg/m3; (313.15 K) 1218 ± 2.1 kg/m3; (323.15 K) 1208.2 ± 2.1 kg/m3.

For `CN(C)C=O.O=C(O)C(F)(F)F` [N,N-dimethylformamide trifluoroacetate], the mass density by setting is: (303.15 K) 1246 ± 2.2 kg/m3; (313.15 K) 1232.9 ± 2.2 kg/m3; (323.15 K) 1219.9 ± 2.2 kg/m3.

The values above are taken from the NIST ThermoML archive (doi:10.1016/j.jct.2012.09.023).
